Experimental data: PubChem BioAssay AID720513 (Broad Institute, 2013)
Inconclusive results are not listed.

Tested on: U2OS PGC1a acetylation AlphaLISA, overnight
Assay: activators raising PGC1a acetylation in cells, dose response, cell-based, cherry-picked samples, set 6 (AID 720513);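 note: cells made to overexpress flag tagged PGC1a plus GCN5 acetyltransferase by viral infection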

Row | SMILES | AC40 [µM]
1 | CCn1nc(C)c(CN2CCc3c([nH]c4ccccc34)C2C(C)(C)C)c1C (stereo unspecified) | 0.88
2 | COC(=O)c1ccc(NC(=O)C23CC4CC(C2)CC(n2cnc(Cl)n2)(C4)C3)cc1 | 1.82
3 | c1ccc(Cn2nnnc2C(c2cccs2)N2CCCCCC2)cc1 (stereo unspecified) | 14.2
4 | COc1ccc(C(c2nnnn2C2CCCC2)N2CCC(C)CC2)c(OC)c1 (stereo unspecified) | 1.86
5 | COc1cc(CNC(=O)c2cc(-c3cc(C)cc(F)c3)n[nH]2)cc(OC)c1 | 15.8
6 | CCOc1ccc(Nc2oc(-c3ccc(Cl)cc3)nc2C#N)cc1 | 3.09
7 | COc1ccc(N(C(=O)c2snc(C(N)=O)c2N)C(C(=O)NC2CCCC2)c2ccco2)c(OC)c1 (stereo unspecified) | 3.85
8 | COc1ccccc1NC(=O)c1ccc(NC(=O)CNC(=O)c2ccc(OC)c(OC)c2)cc1 | 15.7
9 | CCN(CC)c1ccc(N)cc1S(=O)(=O)Nc1ccccc1OC | 3
10 | COc1ccc(Nc2nnc(-c3ccc(C(=O)NCCO)cc3)c3ccccc23)cc1 | 3.07
11 | COc1ccc(CCC(=O)NCCS(=O)(=O)N2CCN(c3ccccc3)CC2)cc1 | 13.4
12 | O=C(/C=C/Sc1ncn[nH]1)c1ccc(Cl)cc1 | 0.395
13 | CCN(CC)CCOc1ccc(/C(=C(\Cl)c2ccccc2)c2ccccc2)cc1 | 3.01
14 | Cc1ccc(S(=O)(=O)CCSC(=N)N)cc1 | 5.17
15 | O=C(NC1CCCCC1)c1cccnc1C(=O)O | 3.2
16 | COC(=O)c1cc2ccsc2n1CC(=O)Nc1cc(Cl)ccc1OC | 7.88
17 | CCCCn1c(CN(Cc2ccccc2)Cc2ccccc2)nc2c1c(=O)n(C)c(=O)n2C | 3.88
18 | COc1ccccc1CN1C[C@@H]2N[C@H](C1)C2c1ccc(-c2ccccc2OC)cc1 (stereo partly specified) | 20.8
19 | Cc1ccc(CC(=O)N2CCN(c3ccc([N+](=O)[O-])cc3)CC2)cc1 | 0.312
20 | OC(c1ccccc1)(C1CCCCC1)C(CN1CCOCC1)c1ccccc1 (stereo unspecified) | 0.634
21 | O=c1[nH]nc(SCCS(=O)(=O)c2ccc(F)cc2)n1-c1ccccc1 | 15.2
22 | CSc1nc(NCc2ccco2)c2ccccc2n1 | 13.6
23 | CC(C)(C)c1ccc(C(=O)c2c[nH]c(C(=O)NCc3cccnc3)c2)cc1 | 1.23
24 | CC(C)(C)c1ccc(NC(=O)N2CCN(c3ccc([N+](=O)[O-])cn3)CC2)cc1 | < 0.16
25 | COc1ccc2c(c1)C(C)=CC(C)(C)N2S(=O)(=O)c1ccc(Br)cc1 | 2.69
26 | O=C(NCc1cccnc1)c1ccc(NC(=O)c2ccc(Br)cc2)cc1 | < 0.16

Row | SMILES | AC40 [µM]
27 | CC(C)CCNc1nc(N2CCCC2)c2c(c1C#N)CCN(C)C2 | 3.92
28 | O=C(c1ccccc1)c1nn(-c2ccc(Cl)cc2)c(=O)cc1C(F)(F)F | 0.451
29 | CCOC(=O)C1=CC[C@@H](c2ccccc2)N(S(=O)(=O)c2ccc(C)cc2)[C@H]1c1ccc(CC)cc1 | 0.785
30 | COc1ccc(C(=O)NN(C)c2nc(-c3ccccc3)cc(C)c2S(C)(=O)=O)cc1 | 19
31 | Cc1ccc(OC(=O)N(C)C[C@H]2OCc3ccccc3-c3c(n(C)c4ccccc34)C(=O)N([C@H](C)CO)C[C@H]2C)cc1 | 7.6
32 | COc1ccc(S(=O)(=O)NNC(=O)c2csc(-n3nc(C)cc3C(F)(F)F)n2)cc1 | 7.43
33 | CC1(C)CC(=O)C2=C(C1)Nc1ccccc1N1C(=O)c3ccccc3C21 (stereo unspecified) | 2.15
34 | CCOC(=O)C1=CC[C@@H](c2ccc([N+](=O)[O-])cc2)N(S(=O)(=O)c2ccc(C)cc2)[C@H]1c1ccccc1 | 5.13
35 | CN1CCN(c2ccc(CNC(=O)c3ccc(-c4ccnn4C)c4ccoc34)cc2)CC1 | 9.27
36 | CC(C)(C)n1nnnc1C(CCc1ccccc1)N1CCC2(CC1)C(=O)NCN2c1ccccc1 (stereo unspecified) | 5.44
37 | Cc1ccc(S(=O)(=O)N2CCN(S(=O)(=O)c3ccc(C)cc3)C2c2ccccc2)cc1 | 2.7
38 | CCOc1ccc(-c2nnn(CC#N)n2)cc1OC | 1.96
39 | COc1ccccc1-c1ccc(C2[C@@H]3CN(Cc4cccc(F)c4)C[C@H]2N3)cc1 (stereo partly specified) | 7.21
40 | CCOc1ccc(NC2c3ccccc3C(=O)N2Cc2ccc3c(c2)OCO3)cc1 (stereo unspecified) | 16.3
41 | COc1ccc(CCn2c(-c3ccc(OC)cc3)nc3c(c(=O)c4ccccc4n3C)c2=O)cc1 | 7.43
42 | O=C(c1ccc(NC(=O)C2(c3ccccc3)CCOCC2)cc1)N1CCOCC1 | 16.6
43 | C=C/C=C/[C@@H]1C(=C)CN2[C@H]1[C@H](Cc1ccccc1)OC(=O)[C@@H]2Cc1ccccc1 | 11.6
44 | O=C1NC(=Nc2ccccc2Cl)S/C1=C\c1cccc([N+](=O)[O-])c1O | 10.6
45 | COc1cc(NC(=O)c2cccs2)c(OC)cc1NC(=O)CCC(=O)Nc1ccc2ncccc2c1 | 0.785
46 | Cc1ccc(NC(=O)CN(C)S(=O)(=O)c2cccs2)c(Br)c1 | 14.7
47 | COC(=O)C[C@H]1c2cc(C(F)(F)F)ccc2S(=O)(=O)N1Cc1ccc(OC)cc1 | 5.25
48 | O=C(CCCc1nc(-c2ccccc2Cl)no1)NCc1cccnc1 | 3.78
49 | O=S(=O)(c1ccc(Cl)cc1)N1[C@@H]2CNC[C@H]1C2c1ccc(-c2cccc(F)c2)cc1 (stereo partly specified) | < 2.6
50 | O=C(Nc1c(F)cccc1F)c1ccc(-n2cncn2)nc1 | 9.12
51 | CN1C(=O)/C(=C\c2ccc(N3CCCCC3)o2)C(=O)NC1=S | 4.61
52 | CCOC(=O)c1[nH]c(C)c(C(=O)Nc2cc(OC)ccc2OC)c1C | 13

Row | SMILES | AC40 [µM]
53 | COC(=O)c1c(NC(=O)COC(=O)[C@@H](NS(=O)(=O)c2ccccc2)C(C)C)sc2c1CCC2 | 13.5
54 | Nc1ccccc1Oc1ncc(C(F)(F)F)cc1Cl | 7.04
55 | CC(=O)n1cc([C@@H]2C=C(C(=O)Nc3ccccc3)O[C@H](OCc3ccc(CO)cc3)C2)c2ccccc21 | 4.65
56 | Cc1ccc(S(=O)(=O)N2C[C@@H]3N[C@H](C2)[C@@H]3c2ccc(-c3cccc(C)c3)cc2)cc1 | 5.18
57 | CCN1CCN(C(=O)c2ccc3c(=O)n(CCC4=CCCCC4)c(=O)[nH]c3c2)CC1 | 1.94
58 | C[C@@H]1CN([C@H](C)CO)C(=O)c2cccc(NC(=O)c3ccc(-c4nccs4)cc3)c2O[C@@H]1CN(C)Cc1ccc(C(=O)Nc2ccccc2N)cc1 | < 0.16
59 | COc1cccc(C(=O)c2c[nH]c(C(=O)NCc3cccnc3)c2)c1 | 1.4
60 | N#Cc1cccc(C(c2nnnn2C2CCCC2)N2CCCCCC2)c1 (stereo unspecified) | 1.24
61 | CC1CN(S(=O)(=O)c2ccc(C(=O)NCCCn3ccnc3)cc2)CC(C)O1 (stereo unspecified) | 0.246
62 | CC(C)[C@H](C)NC(=O)N(C)C[C@H]1OCc2ccccc2-c2c(n(C)c3ccccc23)C(=O)N([C@H](C)CO)C[C@H]1C | 5.85
63 | CCN(CC)CCCn1c(=S)[nH]c2cc(Cl)ccc2c1=O | 0.631
64 | O=C1C=C(c2cc3ccccc3s2)CCC1 | 3.77
65 | O=C(COc1ccc(Cl)cc1)NCCCNC(=O)c1cccnc1 | 1.22
66 | CCN(CC)CCNC(=O)c1ccc2c(c1NCCO)C(=O)c1ccccc1C2=O | 14.6
67 | CCOC(=O)N1CCN(C(=O)C(NS(=O)(=O)c2cccc3nsnc23)c2ccccc2)CC1 (stereo unspecified) | 17.9
68 | COc1ccc(NC(=O)C(=O)NCCC2CCCCN2S(=O)(=O)c2cccs2)cc1 (stereo unspecified) | 17.9
69 | CC1(C)OC(C)(C)/C(=C\c2ccc(OCC(N)=O)cc2)C1=O | 6.64
70 | COC(=O)CSc1nc(-c2ccccc2)cc(-c2ccco2)c1C#N | 6.11
71 | O=C(Nc1ccc(OCC(=O)N2CCC(Cc3ccccc3)CC2)cc1)c1ccco1 | 3.17
72 | Cc1ccc(C(=O)c2c[nH]c(C(=O)NCc3cccnc3)c2)cc1 | 2.67
73 | C[C@@H]1CN([C@@H](C)CO)C(=O)c2c(c3ccccc3n2C)-c2ccccc2CO[C@@H]1CN(C)C(=O)Nc1ccc2c(c1)OCO2 | 7.87
74 | O=C(Nc1ccc(-c2noc(-c3cccs3)n2)cc1)c1cccnc1 | 1.27
75 | Cc1ccc(O)c(C(=O)c2cnc3c(c2)CN(CCC(C)C)C(=O)N3)c1 | 10.2
76 | C[C@H]1CN([C@@H](C)CO)C(=O)c2cccc(NC(=O)c3cnccn3)c2O[C@H]1CN(C)Cc1ccc(C(=O)Nc2ccccc2N)cc1 | < 2.6
77 | COc1cc(CN2CCCC(CO)(Cc3cccc(Cl)c3)C2)cc2c1OCO2 (stereo unspecified) | 8.62
78 | O=C(NN1c2ccccc2CCc2ccccc21)c1ccccc1Br | 4.84

Row | SMILES | AC40 [µM]
79 | O=C(Nc1ccccc1-c1ccccc1)NC1CC2CCCC(C1)N2Cc1ccc(F)cc1 (stereo unspecified) | 10.5
80 | CC1(Cc2ccc(Cl)cc2)C(=O)Nc2c(Cl)ccc(Cl)c21 (stereo unspecified) | 4.52
81 | COC(=O)[C@H](Cc1ccccc1)N(C)S(=O)(=O)c1cccc(S(=O)(=O)N(C)[C@@H](Cc2ccccc2)C(=O)OC)c1 | 9.66
82 | CC(NS(=O)(=O)c1ccccc1Cl)C1CC2CCC1C2 (stereo unspecified) | 0.415
83 | COc1cccc(CN2C[C@@H]3N[C@H](C2)C3c2ccc(-c3ccccc3F)cc2)c1 (stereo partly specified) | 16.3
84 | Cc1ccccc1NC(=O)c1nc(S(C)(=O)=O)ncc1Cl | 0.992
85 | COc1ccc(Nc2nnc(C)c3ccccc23)cc1 | 5.12
86 | COc1ccc(CCNC(=O)COc2ccc(S(=O)(=O)N3CCCC3)cc2)cc1 | 19.3
87 | O=C(CCCCCN1C(=O)c2cccc3cccc(c23)C1=O)NCc1cccnc1 | 0.207
88 | Cc1cccc(C)c1OC1(c2ccccc2)OC(=O)c2ccccc21 (stereo unspecified) | 1.1
89 | C=CCS(=O)(=O)c1nc2ccccc2s1 | 2.99
90 | C[C@@H]1CN([C@@H](C)CO)C(=O)c2c(c3ccccc3n2C)-c2ccccc2CO[C@@H]1CN(C)C(=O)c1cc(Cl)cc(Cl)c1 | 12.7
91 | CC(=O)c1ccc(N2CCN(C(=O)C(=O)c3c(C)[nH]c4ccccc34)CC2)cc1 | 0.996
92 | CC(C)C(c1nnnn1Cc1ccccc1)N(Cc1ccco1)Cc1cccs1 (stereo unspecified) | 0.907
93 | Cc1cc(C(=O)NNS(=O)(=O)c2ccc(F)cc2)nn1C(C)(C)C | 1.09
94 | Cc1cc(C(F)(F)F)n(-c2nc(C(=O)NNS(=O)(=O)c3ccccc3[N+](=O)[O-])cs2)n1 | 3.43
95 | COc1ccccc1-c1ccc2c(c1)O[C@@H](CN(C)Cc1ccc3c(c1)OCO3)[C@@H](C)CN([C@@H](C)CO)S2(=O)=O | 10.6
96 | O=C(COc1ccc([N+](=O)[O-])cc1)Nc1ccc(C(=O)NCc2cccnc2)cc1 | 0.283
97 | CCCCSc1ccc(NC(=O)c2cccnc2)cc1 | 1.78
98 | C[C@@H]1CN([C@H](C)CO)C(=O)c2c(c3ccccc3n2C)-c2ccccc2CO[C@@H]1CN(C)C(=O)Nc1ccc2c(c1)OCO2 | 10.7
99 | O=C(CS(=O)CC(=O)Nc1cccc2c1CCCC2)Nc1ccc(F)cc1 (stereo unspecified) | 10.9
100 | O=[N+]([O-])c1ccc(S(=O)(=O)c2cccc(C(F)(F)F)c2)nc1 | 0.581
101 | C[C@@H]1CN([C@@H](C)CO)C(=O)c2c(c3ccccc3n2C)-c2ccccc2CO[C@@H]1CN(C)C(=O)Nc1cccc(C(F)(F)F)c1 | 10
